From patent publication US10273237B2, “Imidazopyridazine compounds useful as modulators of IL-12, IL-23 and/or IFN-α responses” (BRISTOL-MYERS SQUIBB COMPANY, priority 2013, dated 2019)

Tests used:
[1] = target: T1, His-tagged protein corresponding to amino acids 575-869 of human Tyk2 (Homo sapiens, UniProt P29597); assay: Probe displacement assay (scintillation proximity, radiolabeled probe); assay type: binding; settings: 2.5 nM Tyk2 (575-869), 40 nM [3H] probe, 30 minutes at room temperature
T1 construct: made in house
T1 sequence (P29597 with tags, fused parts or gaps): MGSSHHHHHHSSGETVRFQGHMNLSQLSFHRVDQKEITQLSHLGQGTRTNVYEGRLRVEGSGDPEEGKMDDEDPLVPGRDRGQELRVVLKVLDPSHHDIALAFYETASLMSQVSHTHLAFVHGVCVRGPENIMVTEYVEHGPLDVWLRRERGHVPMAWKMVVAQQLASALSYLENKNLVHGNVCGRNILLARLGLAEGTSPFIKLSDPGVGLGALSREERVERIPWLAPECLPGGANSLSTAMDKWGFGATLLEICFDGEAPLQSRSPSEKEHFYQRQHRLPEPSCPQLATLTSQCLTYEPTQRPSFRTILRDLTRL
Procedure: The preparation of radiolabeled probe, (R)—N-(1-(3-(8-methyl-5-(methylamino)-8H-imidazo[4,5-d]thiazolo[5,4-b]pyridin-2-yl)phenyl)ethyl)-2-([^3H]methylsulfonyl)benzamide, was performed as described below: […]

[2] = tested on: IFNα-stimulated Kit225 T cells with STAT-dependent luciferase reporter; assay: Kit225 T cell assay, STAT-dependent luciferase reporter, IFNα stimulated; assay type: cell-based, human; settings: Homo sapiens, KIT225, 200 U/mL human recombinant IFNα, 5-6 hours, read-out: IFNa Kit225 Reporter, LE (IC50)
How it was run: (§1)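 Kit225 T cells carrying a stably integrated STAT-dependent luciferase reporter, in RPMI with 10% heat-inactivated FBS, stimulated with 20 ng/mL human recombinant IL-23 or 200 U/mL human recombinant IFNα for 5-6 h. Luciferase expression read by Steady-Glo luminescence.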

[3] = tested on: IL-23-stimulated Kit225 T cells with STAT-dependent luciferase reporter; assay: Kit225 T cell assay, STAT-dependent luciferase reporter, IL-23 stimulated; assay type: cell-based, human; settings: Homo sapiens, KIT225, 20 ng/mL human recombinant IL-23, 5-6 hours, read-out: IL-23 Kit225 Reporter, LE (IC50)
How it was run: as §1

Compound | EC50 [1] [nM] | IC50 [2] [nM] | IC50 [3] [nM]
CNc1cc(Nc2cccn(-c3cc(C)n(C)n3)c2=O)nn2c(C(=O)NC3CCC3)cnc12 [Example 155] | 7 | 20 | 30
CNc1cc(Nc2cccn(-c3ccc(C(F)(F)F)cc3)c2=O)nn2c(C(=O)NCC3(CO)CC3)cnc12 [Example 133] | 19 | 200 | 430
CNc1cc(Nc2cccn(-c3ccc(S(C)(=O)=O)cc3)c2=O)nn2c(C(=O)NC3CC3)cnc12 [Example 202] | 8 | 330 | 350
CNc1cc(Nc2cc(F)cn(CCOC)c2=O)nn2c(C(=O)NC3CC3)cnc12 [Example 118] | 18 | 150 | 270
CNc1cc(Nc2cccn(-c3ccc(C(F)(F)F)cc3)c2=O)nn2c(C(=O)NCC(C)(C)CO)cnc12 [Example 136] | 11 | 80 | 170
CC[C@@H](C)NC(=O)c1cnc2c(NC)cc(Nc3cccn(-c4ccn(C)n4)c3=O)nn12 [Example 79] | 6 | 30 | 140
CNc1cc(Nc2cccn(C3CCN(C(=O)c4ncc[nH]4)CC3)c2=O)nn2c(C(=O)NC3CC3)cnc12 [Example 245] | 7 | 260 | 290
CNc1cc(Nc2cccn(-c3nccs3)c2=O)nn2c(C(=O)NC3CC3)cnc12 [Example 35] | 5 | 50 | 20

Other lines, results leading:

EC50 [1] [nM] | IC50 [2] [nM] | IC50 [3] [nM] | Compound
12 | 170 | 140 | CNc1cc(Nc2cccn(-c3ccccn3)c2=O)nn2c(C(=O)NCCF)cnc12 [Example 101]
5 | 110 | 340 | CNc1cc(Nc2cccn(-c3cccc(C(C)O)n3)c2=O)nn2c(C(=O)NC3CC3)cnc12 (stereo not drawn) [Example 85]
17 | 20 | 50 | CNc1cc(Nc2ccnn(-c3ccccc3)c2=O)nn2c(C(=O)N[C@@H]3C[C@@H]3F)cnc12 [Example 180]
21 | 230 | 70 | CNc1cc(Nc2cccn(-c3ccccc3)c2=O)nn2c(C(=O)N[C@H]3CCCC[C@H]3O)cnc12 [Example 188]
2 | 120 | 200 | CNc1cc(Nc2cccn(-c3ncc(C)cn3)c2=O)nn2c(C(=O)N[C@@H]3C[C@@H]3F)cnc12 [Example 83]
6 | 30 | 30 | CNc1cc(Nc2cccn(-c3cccc(C(C)O)n3)c2=O)nn2c(C(=O)NC3CCC3)cnc12 (stereo not drawn) [Example 86]
27 | 80 | 220 | CNc1cc(Nc2cccn(-c3ccccn3)c2=O)nn2c(C(=O)NC3CC3)cnc12 [Example 32]
5 | 10 | 30 | CNc1cc(Nc2cccn(-c3cccc(F)n3)c2=O)nn2c(C(=O)N[C@@H]3C[C@@H]3F)cnc12 [Example 145]
29 | 380 | 220 | CCC(CC)CNC(=O)c1cnc2c(NC)cc(Nc3cccn(-c4ccccc4)c3=O)nn12 [Example 187]
8 | 190 | 300 | CNc1cc(Nc2cccn(-c3cccc(C#N)c3)c2=O)nn2c(C(=O)NC3CC3)cnc12 [Example 126]
9 | 110 | 170 | CC[C@@H](C)NC(=O)c1cnc2c(NC)cc(Nc3cccn(-c4ccccn4)c3=O)nn12 [Example 74]
